Assay results from patent US8791163B2 (McGill University, priority 2006, dated 2014).

System: Male Sprague-Dawley rats
Experiment: Forced Swimming Test (FST)
Format: in vivo, rat
Conditions: 5b 40 mg/kg i.p. 24, 5 and 1 hour prior to the test; vs vehicle
Source text: The forced swimming test (FST), Open field Test (OFT) and the in vivo electrophysiology recording were employed to evaluate the anti-depressant activity, the anti-anxiety activity and the sleep promoting properties of the compounds of the present invention [compounds of Formula (I)]. The following results were obtained using compound 5b. Male Sprague-Dawley rats (225-275 g, Charles-River Saint-Constant, Quebec, Canada) were used. The animals were housed at constant room temperature and humidity under a 12 h light/dark cycle. Food and water were available ad libitum. All procedures were approved by local institutional care and use committees and followed the guidelines released by the Canadian Institutes of Health Research.
The FST is typically a two-day procedure in which rats are immersed in a water containing cylinder (18 cm in diameter; 40 cm high; water 30 cm deep, 25-27° C.) from which they cannot escape. On the first day, the rats are forced to remain in the water bath for 15 minutes (pre-test). During this time, the rats usually struggle to escape, but eventually adopt a posture of immobility in which they emit only the minimal movements necessary to keep their heads above water. The actual test (5 min) occurs 24 h later. When re-immersed in the water, immobility is increased; antidepressant treatments reliably reduce immobility during the test. The FST is both sensitive and selective for clinically effective antidepressants, has been repeatedly validated and is currently the most popular model for detecting antidepressant activity due to its ease of use, reliability and extremely high predictive validity (Lucki, I. (1997) Behav. Pharmacol. 8(6-7): 523-32).
At the end of the pre-test, the rats are removed from the water bath, dried with towels and placed in a warm enclosure for 15 min. The rats are then returned to their respective home cages. […] Behavior is recorded continuously throughout the 5 min test by a video camera positioned directly above the water cylinder. […] The total time for each type of behavior represents the times that a specified behavior is detected. […]

COc1cccc(N(CCNC(C)=O)c2ccccc2)c1 [5b, N-{2-[(3-Methoxyphenyl)-phenylamino]ethyl}acetamide]
immobility: significantly decreased
tendency to climb or burst: increased the tendency to climb or burst
tendency to swim: increased the tendency to swim
